Assay results published in publication PMC11724923 (Nature Communications, 2025).
Each block holds one molecule with its values, some of them ahead of it.

Key:
PRDX1 [1] = target: T1, PRDX1 (Homo sapiens, UniProt Q06830); experiment: SPR with sodium palmitate; format: binding
T1 sequence (Q06830 1-199): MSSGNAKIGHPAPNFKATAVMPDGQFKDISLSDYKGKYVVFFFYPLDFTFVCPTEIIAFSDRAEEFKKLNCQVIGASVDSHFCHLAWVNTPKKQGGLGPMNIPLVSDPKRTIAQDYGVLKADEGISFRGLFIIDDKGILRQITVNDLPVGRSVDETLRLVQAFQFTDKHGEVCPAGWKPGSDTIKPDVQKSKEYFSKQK

PRDX1 [2] = target: T1, PRDX1; experiment: SPR; format: binding
crystal structure = target: the molecule itself; experiment: crystal structure

- Kd (PRDX1 [1]): 75.3 ± 4.5 µM
Molecule: CCCCCCCCCCCCCCCC(=O)O [PA, palmitic acid]

- Kd (PRDX1 [2]): 0.3757 ± 0.0025 µM
Molecule: O=C(/C=C/c1ccc(O)c(O)c1)O[C@H](Cc1ccc(O)c(O)c1)C(=O)O [RA, rosmarinic acid]

B1: PRDX1^C52SC83S (aa 1-175) (enzyme, human, UniProt Q06830 1-175, looked up)
chain: MSSGNAKIGHPAPNFKATAVMPDGQFKDISLSDYKGKYVVFFFYPLDFTFVSPTEIIAFSDRAEEFKKLNCQVIGASVDSHFSHLAWVNTPKKQGGLGPMNIPLVSDPKRTIAQDYGVLKADEGISFRGLFIIDDKGILRQITVNDLPVGRSVDETLRLVQAFQFTDKHGEVCPA
- binding result (crystal structure): binds
